The NIST ThermoML archive (doi:10.1021/je060157s)
“And” between values parts separate entries of the source, which are not always exact repeats. Equal entries are not always repeated. Numbers after ± are expanded uncertainties.

Conditions: Liquid

Compound | vapor or sublimation pressure (293.15 K) | vapor or sublimation pressure (293.33 K) | vapor or sublimation pressure (293.34 K) | vapor or sublimation pressure (303.15 K) | vapor or sublimation pressure (303.35 K) | vapor or sublimation pressure (313.15 K) | vapor or sublimation pressure (313.37 K) | vapor or sublimation pressure (323.15 K) | vapor or sublimation pressure (323.39 K) | vapor or sublimation pressure (333.15 K) | vapor or sublimation pressure (333.39 K) | vapor or sublimation pressure (343.15 K) | vapor or sublimation pressure (343.42 K) | vapor or sublimation pressure (353.15 K) | vapor or sublimation pressure (353.43 K) | vapor or sublimation pressure (363.15 K) | vapor or sublimation pressure (363.43 K)
CC(O)c1ccccc1 (stereo not given) [1-phenylethanol] | 0.006 ± 0.006 kPa | 0.009952 ± 0.0035 kPa | 0.009956 ± 0.0035 kPa | 0.016 ± 0.007 kPa | 0.02451 ± 0.0047 kPa and 0.0219 ± 0.0046 kPa | 0.041 ± 0.009 kPa | 0.06281 ± 0.0061 kPa and 0.06414 ± 0.0062 kPa | 0.095 ± 0.014 kPa | 0.1472 ± 0.013 kPa and 0.136 ± 0.013 kPa and 0.1419 ± 0.013 kPa | 0.203 ± 0.021 kPa | 0.2635 ± 0.016 kPa and 0.2649 ± 0.016 kPa | 0.404 ± 0.033 kPa | 0.515 ± 0.022 kPa and 0.5189 ± 0.022 kPa | 0.759 ± 0.055 kPa | 0.902 ± 0.032 kPa and 0.9053 ± 0.032 kPa | 1.352 ± 0.079 kPa | 1.556 ± 0.041 kPa
O [water] | 2.333 ± 0.091 kPa |  |  | 4.24 ± 0.12 kPa |  | 7.376 ± 0.15 kPa |  | 12.34 ± 0.22 kPa |  | 19.92 ± 0.31 kPa |  | 31.17 ± 0.45 kPa |  | 47.38 ± 0.66 kPa |  | 70.18 ± 0.94 kPa | 
